Values of other authors in article PMC8513935.
Each block holds one compound with its values, some of them ahead of it.

Columns and labels:
[1] = experimental, compiled by the authors from the literature (the ESI cites the sources)
[2] = derived by the authors as gas->solvent minus gas->water (a hypothetical dry solvent; the ESI), not a two-phase measurement

- log K of transfer, gas to solvent ([1]; Chloroform, 25 C): 4.69 log10 K
- log K of transfer, gas to solvent ([1]; Hexadecane, 25 C): 3.02 log10 K
- log K of transfer, gas to solvent ([1]; Water, 25 C): 1.07 log10 K
- log K of transfer, water to solvent ([2]; Chloroform, 25 C): 3.62 log10 K
Compound: CCSCC

Compound: C=CCCCCCCC
- log K of transfer, gas to solvent ([1]; Hexadecane, 25 C): 4.07 log10 K
- log K of transfer, gas to solvent ([1]; Octan-1-ol, 25 C): 3.83 log10 K
- log K of transfer, gas to solvent ([1]; Water, 25 C): -1.51 log10 K
- log K of transfer, water to solvent ([2]; Hexadecane, 25 C): 5.58 log10 K
- log K of transfer, water to solvent ([2]; Octan-1-ol(dry), 25 C): 5.34 log10 K

- log K of transfer, gas to solvent ([1]; Chloroform, 25 C): 6.98 log10 K
- log K of transfer, gas to solvent ([1]; Hexadecane, 25 C): 5.45 log10 K
- log K of transfer, gas to solvent ([1]; Water, 25 C): 4.2 log10 K
- log K of transfer, water to solvent ([2]; Chloroform, 25 C): 2.78 log10 K
- log K of transfer, water to solvent ([2]; Hexadecane, 25 C): 1.26 log10 K
Compound: c1ccc2ncccc2c1

- log K of transfer, gas to solvent ([1]; Hexadecane, 25 C): 4.21 log10 K
- log K of transfer, gas to solvent ([1]; Water, 25 C): 3.55 log10 K
- log K of transfer, water to solvent ([2]; Hexadecane, 25 C): 0.664 log10 K
Compound: Cc1cncc(C)c1

Compound: c1ccncc1
- log K of transfer, gas to solvent ([1]; 1,2-Dichloroethane, 25 C): 4.16 log10 K
- log K of transfer, gas to solvent ([1]; 2-Methylpropan-1-ol, 25 C): 4.16 log10 K
- log K of transfer, gas to solvent ([1]; 2-Methylpropan-2-ol, 25 C): 3.96 log10 K
- log K of transfer, gas to solvent ([1]; Benzene, 25 C): 3.87 log10 K
- log K of transfer, gas to solvent ([1]; Butan-1-ol, 25 C): 3.95 log10 K
- log K of transfer, gas to solvent ([1]; Butan-2-ol, 25 C): 4.13 log10 K
- log K of transfer, gas to solvent ([1]; Butanone, 25 C): 3.94 log10 K
- log K of transfer, gas to solvent ([1]; CCl4, 25 C): 3.77 log10 K
- log K of transfer, gas to solvent ([1]; Chloroform, 25 C): 4.73 log10 K
- log K of transfer, gas to solvent ([1]; Cyclohexane, 25 C): 3.03 log10 K
- log K of transfer, gas to solvent ([1]; Ethanol, 25 C): 4.18 log10 K
- log K of transfer, gas to solvent ([1]; Hexadecane, 25 C): 3.02 log10 K
- log K of transfer, gas to solvent ([1]; Hexane, 25 C): 3.07 log10 K
- log K of transfer, gas to solvent ([1]; Propan-1-ol, 25 C): 3.99 log10 K
- log K of transfer, gas to solvent ([1]; Propan-2-ol, 25 C): 3.86 log10 K
- log K of transfer, gas to solvent ([1]; Propanone, 25 C): 3.97 log10 K
- log K of transfer, gas to solvent ([1]; Toluene, 25 C): 3.76 log10 K
- log K of transfer, gas to solvent ([1]; Water, 25 C): 3.44 log10 K
- log K of transfer, water to solvent ([2]; 1,2-Dichloroethane, 25 C): 0.72 log10 K
- log K of transfer, water to solvent ([2]; 2-Methylpropan-1-ol, 25 C): 0.72 log10 K
- log K of transfer, water to solvent ([2]; 2-Methylpropan-2-ol, 25 C): 0.52 log10 K
- log K of transfer, water to solvent ([2]; Acetone, 25 C): 0.53 log10 K
- log K of transfer, water to solvent ([2]; Benzene, 25 C): 0.43 log10 K
- log K of transfer, water to solvent ([2]; Butan-1-ol, 25 C): 0.51 log10 K
- log K of transfer, water to solvent ([2]; Butan-2-ol, 25 C): 0.69 log10 K
- log K of transfer, water to solvent ([2]; Butanone, 25 C): 0.5 log10 K
- log K of transfer, water to solvent ([2]; CCl4, 25 C): 0.33 log10 K
- log K of transfer, water to solvent ([2]; Chloroform, 25 C): 1.29 log10 K
- log K of transfer, water to solvent ([2]; Cyclohexane, 25 C): -0.41 log10 K
- log K of transfer, water to solvent ([2]; Ethanol, 25 C): 0.74 log10 K
- log K of transfer, water to solvent ([2]; Hexadecane, 25 C): -0.418 log10 K
- log K of transfer, water to solvent ([2]; Hexane, 25 C): -0.37 log10 K
- log K of transfer, water to solvent ([2]; Propan-1-ol, 25 C): 0.55 log10 K
- log K of transfer, water to solvent ([2]; Propan-2-ol, 25 C): 0.42 log10 K
- log K of transfer, water to solvent ([2]; Toluene, 25 C): 0.32 log10 K

- log K of transfer, gas to solvent ([1]; Hexadecane, 25 C): 1.82 log10 K
- log K of transfer, gas to solvent ([1]; Hexane, 25 C): 2.03 log10 K
- log K of transfer, gas to solvent ([1]; Methanol, 25 C): 1.4 log10 K
- log K of transfer, gas to solvent ([1]; Water, 25 C): -1.84 log10 K
- log K of transfer, water to solvent ([2]; Hexadecane, 25 C): 3.66 log10 K
- log K of transfer, water to solvent ([2]; Hexane, 25 C): 3.87 log10 K
- log K of transfer, water to solvent ([2]; Methanol, 25 C): 3.24 log10 K
Compound: CC(C)(C)C

- log K of transfer, gas to solvent ([1]; Chloroform, 25 C): 6.9 log10 K
- log K of transfer, gas to solvent ([1]; Hexadecane, 25 C): 5.59 log10 K
- log K of transfer, gas to solvent ([1]; Water, 25 C): 3.92 log10 K
- log K of transfer, water to solvent ([2]; Chloroform, 25 C): 2.98 log10 K
- log K of transfer, water to solvent ([2]; Hexadecane, 25 C): 1.67 log10 K
Compound: c1ccc2cnccc2c1

- log K of transfer, gas to solvent ([1]; Hexadecane, 25 C): 5.23 log10 K
- log K of transfer, gas to solvent ([1]; Water, 25 C): 0.17 log10 K
- log K of transfer, water to solvent ([2]; Hexadecane, 25 C): 5.06 log10 K
Compound: CCCCCc1ccccc1

Compound: CCCCCF
- log K of transfer, gas to solvent ([1]; Hexadecane, 25 C): 2.44 log10 K
- log K of transfer, gas to solvent ([1]; Water, 25 C): -0.21 log10 K
- log K of transfer, water to solvent ([2]; Hexadecane, 25 C): 2.65 log10 K
